Consider five compounds from PMC6539525, “Design, Synthesis, and Mechanism of Dihydroartemisinin–Coumarin Hybrids as Potential Anti-Neuroinflammatory Agents” (Molecules, 2019).

A word on the IC50: it is the concentration that gives 50% inhibition. One may read the melting point as the temperature, or range, at which the solid turns liquid. Usually inhibition stands for how much of the control response was suppressed. A low value points to little suppression. As a reminder, the IC20 is the concentration needed for an effect of 20%.

One series has as its system MDA-MB-231 cells. Briefly: MTT cytotoxicity in MDA-MB-231 cells. It counts as cell-based. The settings on record: Homo sapiens. The essentials:
(§1)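 Standard MTT assay: cells seeded 24 h, treated with compounds at 6.25–100 μM in triplicate, then grown for 96 h total. Run under normoxia (air throughout) or hypoxia (95% N2 for 24 h, then 72 h normoxia). MTT added for 4 h, formazan dissolved in DMSO, absorbance read at 570 nm.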

The next series deals with HT-29 cells. Briefly: MTT cytotoxicity in HT-29 cells. The settings on record: Homo sapiens, MTT. It counts as cell-based, Human.
Another series relates to HCT-116 cells. Briefly: MTT cytotoxicity in HCT-116 cells. Type of series: cell-based. The settings on record: Homo sapiens. The essentials:
as §1

The subject of series [1] is TNF-α release of LPS-induced N9 cells. Briefly: TNF-α release of LPS-induced N9 cells (cytokine kit). It counts as cell-based, murine. The following applies: compound 1 μM, LPS 1 μg/mL, 48 h. The protocol: (§2) N9 cells, which were in the logarithmic phase, were incubated for 24 h by adherent culture. Subsequently, the medium was changed to new one without serum. The cells were treated with different concentration of tested compounds. After specific time in the LPS condition, the supernatants were collected and analyzed.
(§3) The secreted level of TNF-α and IL-6 was measured using mouse Th1/Th2/Th17 Cytokine Kit, purchased from BD Pharningen. The data was analyzed by FCAP Array v3.0. IL-2, IL-4, IL-10, IL-17A, and IFN-γ were not detected in the experiment.

Series [2] can be described thus: MTT cytotoxicity in N9 cells. The following applies: mouse, N9 microglial cells, cytotoxic activity. It counts as cell-based, murine. The essentials: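 N9 microglial cells seeded at 1.5–3 × 10^4 cells/mL, grown 24 h, then exposed to compounds at 6.25–100 μM in triplicate for 96 h. Viability by MTT (4 h), formazan dissolved in DMSO, absorbance at 570 nm; MTT-IC20 derived.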

The test system of the next series is A549 cells. Briefly: MTT cytotoxicity in A549 cells. Type of series: cell-based. The settings on record: Homo sapiens. The essentials:
as §1

For series [3], the system named is IL-6 release of LPS-induced N9 cells. Briefly: IL-6 release of LPS-induced N9 cells (cytokine kit). Type of series: cell-based, murine. The settings on record: compound 1 μM, LPS 1 μg/mL, 48 h. The protocol: as §2, §3
Series [4] relates to NO release of LPS-induced microglial N9 cells. Briefly: Inhibition of NO release in LPS-induced N9 cells (Griess). It counts as cell-based, murine. The following applies: Mus musculus, 1 μg/mL LPS for 48 h, NO level in medium. The essentials:
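Log-phase N9 microglia were grown adherent for 24 h, switched to serum-free medium, then given test compounds under LPS stimulation. Nitrite in supernatant was quantified by Griess reaction at 540 nm; MTT-IC20 was determined to exclude cytotoxic effects.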
Background: Griess reagent forms a coloured azo dye with nitrite.

Setting [5] is: MDA-MB-231, hypoxia 24 h then normoxia 72 h, read-out: IC50 MDA-MB-231 Hypoxia.
Where [6] appears, read: MDA-MB-231, normoxia 96 h, read-out: IC50 MDA-MB-231 Normoxia.
Setting [7] is: HT-29, hypoxia 24 h then normoxia 72 h, read-out: IC50 HT-29 Hypoxia.
[8] abbreviates: HT-29, normoxia 96 h, read-out: IC50 HT-29 Normoxia.
Setting [9] is: HCT-116, hypoxia 24 h then normoxia 72 h, read-out: IC50 HCT-116 Hypoxia.
[10] abbreviates: HCT-116, normoxia 96 h, read-out: IC50 HCT-116 Normoxia.
Where [11] appears, read: A549, hypoxia 24 h then normoxia 72 h, read-out: IC50 A549 Hypoxia.
Where [12] appears, read: A549, normoxia 96 h, read-out: IC50 A549 Normoxia.

Structures are written as SMILES. Where two headings read alike, the source gives them in different places.

`C[C@H]1[C@@H](OCCc2cn(Cc3cc4cc(Br)ccc4oc3=O)nn2)O[C@@H]2O[C@@]3(C)CC[C@H]4[C@H](C)CC[C@@H]1[C@@]24OO3` [2b, 6-bromo-3-((4-(2-((10S)-dihydroartemisininoxy)ethyl)-1H-1,2,3-triazol-1-yl)-methyl)-2H-1-chromen-2-one] showed a melting point of 138 to 140 °C. Besides, the IC50 with MDA-MB-231 cells (setting [5]) was found to be 36.9 µM. Besides, the IC50 in the series with MDA-MB-231 cells (setting [6]) stood at 37.7 µM. Moreover, the 50% inhibitory concentration (IC50) in the series with HT-29 cells (setting [7]) turned out to be 12.1 µM. For the same compound, the IC50 in the series with HT-29 cells (setting [8]) is 9.75 µM. The IC50 in the series on HCT-116 cells (setting [9]) was greater than 100 µM. Also, the half-inhibitory concentration (IC50) with HCT-116 cells (setting [10]) came to 56 µM. In addition, at 1 µM the inhibition in [1] (Mus musculus) was 27.2%. The same compound displayed a TNF-α in [1] of 3285.99 ± 1062.40 pg/mL. Moreover, in [2], the concentration for an effect of 20% (IC20) is greater than 10 µM. The half-maximal inhibitory concentration (IC50) with A549 cells (setting [11]) was determined as 60.2 µM. Besides, the IC50 with A549 cells (setting [12]) was greater than 100 µM. This compound also yielded an inhibition at 1 µM in [3] (Mus musculus) of 30.9%. In series [3], the IL-6 worked out at 797.52 ± 140.74 pg/mL. In addition, it took 0.64 µM to reach half-maximal inhibition in [4] (IC50).
Turning to `Cc1ccc2c(OCc3cn(CCCO[C@H]4O[C@@H]5O[C@@]6(C)CC[C@H]7[C@H](C)CC[C@@H]([C@H]4C)[C@@]57OO6)nn3)cc(=O)oc2c1` [6k], the melting point lay in the range of 80 to 82 °C. Also, the half-inhibitory concentration (IC50) with MDA-MB-231 cells (setting [5]) stood at 14.5 µM. In the series with MDA-MB-231 cells (setting [6]), the concentration for half-maximal inhibition (IC50) was determined as 38.6 µM. In the series on HT-29 cells (setting [7]), the IC50 was found to be 5.32 µM. Further, the IC50 in the series with HT-29 cells (setting [8]) was determined as 6.85 µM. For the same compound, the half-inhibitory concentration (IC50) in the series on HCT-116 cells (setting [9]) came out at 33.7 µM. The IC50 in the series on HCT-116 cells (setting [10]) was 28.1 µM. Moreover, the IC20 in series [2] was greater than 10 µM. Also, the IC50 in the series on A549 cells (setting [11]) stood at 9.49 µM. Also, the half-maximal inhibitory concentration (IC50) with A549 cells (setting [12]) turned out to be 14.9 µM. Also, it took 1.91 µM to reach half-maximal inhibition in series [4] (IC50).
Consider `Cc1cc(C)c2oc(=O)cc(OCc3cn(CCCO[C@H]4O[C@@H]5O[C@@]6(C)CC[C@H]7[C@H](C)CC[C@@H]([C@H]4C)[C@@]57OO6)nn3)c2c1` [6m], for which the melting point lay within 90 to 92 °C. In addition, in the series with MDA-MB-231 cells (setting [5]), the 50% inhibitory concentration (IC50) turned out to be 18.7 µM. In addition, in the series on MDA-MB-231 cells (setting [6]), the concentration for half-maximal inhibition (IC50) is 24.6 µM. In addition, the IC50 with HT-29 cells (setting [7]) worked out at 5.9 µM. Moreover, the concentration for half-maximal inhibition (IC50) with HT-29 cells (setting [8]) turned out to be 22.4 µM. Moreover, the IC50 in the series on HCT-116 cells (setting [9]) was found to be 93.5 µM. Further, the IC50 in the series on HCT-116 cells (setting [10]) worked out at 42.1 µM. In addition, the IC20 in series [2] was greater than 10 µM. The 50% inhibitory concentration (IC50) in the series with A549 cells (setting [11]) was 20.1 µM. For the same compound, the IC50 in the series with A549 cells (setting [12]) was 27.9 µM. Moreover, the IC50 in [4] was determined as 5.8 µM.
Turning to `Cc1ccc2c(OCc3cn(CCCO[C@H]4O[C@@H]5O[C@@]6(C)CC[C@H]7[C@H](C)CC[C@@H]([C@H]4C)[C@@]57OO6)nn3)cc(=O)oc2c1C` [6n], the melting point was in the range of 115 to 117 °C. Moreover, the IC50 in the series on MDA-MB-231 cells (setting [5]) is 10.8 µM. In the series with MDA-MB-231 cells (setting [6]), the IC50 was found to be 13.3 µM. In the series on HT-29 cells (setting [7]), the IC50 was 4.19 µM. In addition, the concentration for half-maximal inhibition (IC50) with HT-29 cells (setting [8]) was 9.16 µM. In addition, in the series on HCT-116 cells (setting [9]), the IC50 worked out at 33.7 µM. Moreover, the IC50 in the series with HCT-116 cells (setting [10]) was 22.5 µM. Further, the IC20 in series [2] is 6.53 µM. In addition, in the series on A549 cells (setting [11]), the concentration for half-maximal inhibition (IC50) came to 0.039 µM. Also, the IC50 with A549 cells (setting [12]) was found to be 30.4 µM. Moreover, the midpoint of inhibition in [4], the IC50, lay at 1.13 µM.
For the compound `Cc1cccc2c(OCc3cn(CCCO[C@H]4O[C@@H]5O[C@@]6(C)CC[C@H]7[C@H](C)CC[C@@H]([C@H]4C)[C@@]57OO6)nn3)cc(=O)oc12` [6o], the melting point was 143 to 145 °C. The IC50 in the series with MDA-MB-231 cells (setting [5]) came out at 18.6 µM. Besides, in the series on MDA-MB-231 cells (setting [6]), the concentration for half-maximal inhibition (IC50) was found to be 47.6 µM. For the same compound, in the series on HT-29 cells (setting [7]), the IC50 is 29 µM. The 50% inhibitory concentration (IC50) with HT-29 cells (setting [8]) stood at 81.6 µM. For the same compound, the 50% inhibitory concentration (IC50) with HCT-116 cells (setting [9]) came to 42.4 µM. For the same compound, the IC50 with HCT-116 cells (setting [10]) turned out to be 12.1 µM. The IC20 in series [2] is greater than 10 µM. The half-maximal inhibitory concentration (IC50) in the series on A549 cells (setting [11]) was determined as 39.9 µM. Moreover, the IC50 in the series on A549 cells (setting [12]) was 78.1 µM. Moreover, the IC50 in series [4] is 1.43 µM.
